From PubChem BioAssay (NCI)
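Protocol summary: plate cells (96-well), add compound at 5 concentrations, incubate 48 h, interpolate endpoints linearly. At the GI50, growth is halved. TGI: total growth inhibition.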

How the values were obtained:
Test in all cases: NCI tumour cell line growth inhibition, 48 h
OVCAR-5 ovarian = test system: OVCAR-5 ovarian
HS 578T breast = test system: HS 578T breast
RXF 393 renal = test system: RXF 393 renal
RPMI-8226 leukemia = test system: RPMI-8226 leukemia
UO-31 renal = test system: UO-31 renal
UACC-62 melanoma = test system: UACC-62 melanoma
A498 renal = test system: A498 renal
SN12C renal = test system: SN12C renal
KM12 colon = test system: KM12 colon
UACC-257 melanoma = test system: UACC-257 melanoma
EKVX NSCLC = test system: EKVX NSCLC
MALME-3M melanoma = test system: MALME-3M melanoma
MDA-MB-435 = test system: MDA-MB-435
SR leukemia = test system: SR leukemia
IGROV1 ovarian = test system: IGROV1 ovarian
COLO 205 colon = test system: COLO 205 colon
SK-MEL-28 melanoma = test system: SK-MEL-28 melanoma
SF-539 CNS = test system: SF-539 CNS
786-0 renal = test system: 786-0 renal
PC-3 prostate = test system: PC-3 prostate
OVCAR-3 ovarian = test system: OVCAR-3 ovarian
NCI-H522 lung = test system: NCI-H522 lung
A549 NSCLC = test system: A549 NSCLC
U251 CNS = test system: U251 CNS
CAKI-1 renal = test system: CAKI-1 renal
T-47D breast = test system: T-47D breast
OVCAR-8 ovarian = test system: OVCAR-8 ovarian
ACHN renal = test system: ACHN renal
NCI/ADR-RES ovarian = test system: NCI/ADR-RES ovarian
SF-268 CNS = test system: SF-268 CNS
HOP-92 NSCLC = test system: HOP-92 NSCLC
LOX IMVI melanoma = test system: LOX IMVI melanoma
SNB-75 CNS = test system: SNB-75 CNS
M14 melanoma = test system: M14 melanoma
MCF7 breast = test system: MCF7 breast
DU-145 prostate = test system: DU-145 prostate
HL-60(TB) leukemia = test system: HL-60(TB) leukemia
HCT-15 colon = test system: HCT-15 colon
HOP-62 NSCLC = test system: HOP-62 NSCLC
BT-549 breast = test system: BT-549 breast
TK-10 renal = test system: TK-10 renal
NCI-H23 lung = test system: NCI-H23 lung
HCC-2998 colon = test system: HCC-2998 colon
SF-295 CNS = test system: SF-295 CNS
SK-MEL-2 melanoma = test system: SK-MEL-2 melanoma
K-562 leukemia = test system: K-562 leukemia
CCRF-CEM leukemia = test system: CCRF-CEM leukemia
MOLT-4 leukemia = test system: MOLT-4 leukemia
SK-OV-3 ovarian = test system: SK-OV-3 ovarian
SW-620 colon = test system: SW-620 colon
SNB-19 CNS = test system: SNB-19 CNS
HT29 colon = test system: HT29 colon
MDA-MB-231 breast = test system: MDA-MB-231 breast
NCI-H226 lung = test system: NCI-H226 lung
NCI-H460 lung = test system: NCI-H460 lung
OVCAR-4 ovarian = test system: OVCAR-4 ovarian
HCT-116 colon = test system: HCT-116 colon
SK-MEL-5 melanoma = test system: SK-MEL-5 melanoma

COc1cc(CNCCCN2C(=O)c3ccc4c5c(ccc(c35)C2=O)C(=O)N(CCCNCc2cc(OC)c(OC)c(OC)c2)C4=O)cc(OC)c1OC
GI50 (OVCAR-5 ovarian): 801 nM | TGI (OVCAR-5 ovarian): 2790 nM | GI50 (HS 578T breast): 1200 nM | TGI (HS 578T breast): 3760 nM | GI50 (RXF 393 renal): 350 nM | TGI (RXF 393 renal): 990 nM | GI50 (RPMI-8226 leukemia): 523 nM | TGI (RPMI-8226 leukemia): 2340 nM | GI50 (UO-31 renal): 2910 nM | TGI (UO-31 renal): 9480 nM | GI50 (UACC-62 melanoma): 793 nM | TGI (UACC-62 melanoma): 1570 nM | GI50 (A498 renal): 627 nM | TGI (A498 renal): 1410 nM | GI50 (SN12C renal): 227 nM | TGI (SN12C renal): 475 nM | GI50 (KM12 colon): 238 nM | TGI (KM12 colon): 834 nM | GI50 (UACC-257 melanoma): 283 nM | TGI (UACC-257 melanoma): 541 nM | GI50 (EKVX NSCLC): 543 nM | TGI (EKVX NSCLC): 1350 nM | GI50 (MALME-3M melanoma): 334 nM | TGI (MALME-3M melanoma): 1020 nM | GI50 (MDA-MB-435): 367 nM | TGI (MDA-MB-435): 1110 nM | GI50 (SR leukemia): 180 nM | TGI (SR leukemia): 1620 nM | GI50 (IGROV1 ovarian): 240 nM | TGI (IGROV1 ovarian): 1060 nM | GI50 (COLO 205 colon): 139 nM | TGI (COLO 205 colon): 352 nM | GI50 (SK-MEL-28 melanoma): 841 nM | TGI (SK-MEL-28 melanoma): 1570 nM | GI50 (SF-539 CNS): 653 nM | TGI (SF-539 CNS): 1390 nM | GI50 (786-0 renal): 944 nM | TGI (786-0 renal): 2390 nM | GI50 (PC-3 prostate): 387 nM | TGI (PC-3 prostate): 1570 nM | GI50 (OVCAR-3 ovarian): 143 nM | TGI (OVCAR-3 ovarian): 382 nM | GI50 (NCI-H522 lung): 409 nM | TGI (NCI-H522 lung): 1140 nM | GI50 (A549 NSCLC): 305 nM | TGI (A549 NSCLC): 977 nM | GI50 (U251 CNS): 257 nM | TGI (U251 CNS): 930 nM | GI50 (CAKI-1 renal): 3280 nM | TGI (CAKI-1 renal): 9640 nM | GI50 (T-47D breast): 380 nM | TGI (T-47D breast): 1120 nM | GI50 (OVCAR-8 ovarian): 272 nM | TGI (OVCAR-8 ovarian): 959 nM | GI50 (ACHN renal): 841 nM | TGI (ACHN renal): 3170 nM | GI50 (NCI/ADR-RES ovarian): 9160 nM | TGI (NCI/ADR-RES ovarian): 39000 nM | GI50 (SF-268 CNS): 542 nM | TGI (SF-268 CNS): 2270 nM | GI50 (HOP-92 NSCLC): 1020 nM | TGI (HOP-92 NSCLC): 2490 nM | GI50 (LOX IMVI melanoma): 140 nM | TGI (LOX IMVI melanoma): 525 nM | GI50 (SNB-75 CNS): 589 nM | TGI (SNB-75 CNS): 1330 nM | GI50 (M14 melanoma): 841 nM | TGI (M14 melanoma): 1600 nM | GI50 (MCF7 breast): 242 nM | TGI (MCF7 breast): 643 nM | GI50 (DU-145 prostate): 436 nM | TGI (DU-145 prostate): 1110 nM | GI50 (HL-60(TB) leukemia): 919 nM | TGI (HL-60(TB) leukemia): 1970 nM | GI50 (HCT-15 colon): 1180 nM | TGI (HCT-15 colon): 3550 nM | GI50 (HOP-62 NSCLC): 477 nM | TGI (HOP-62 NSCLC): 1320 nM | GI50 (BT-549 breast): 852 nM | TGI (BT-549 breast): 1770 nM | GI50 (TK-10 renal): 416 nM | TGI (TK-10 renal): 1320 nM | GI50 (NCI-H23 lung): 350 nM | TGI (NCI-H23 lung): 1220 nM | GI50 (HCC-2998 colon): 363 nM | TGI (HCC-2998 colon): 915 nM | GI50 (SF-295 CNS): 517 nM | TGI (SF-295 CNS): 1550 nM | GI50 (SK-MEL-2 melanoma): 562 nM | TGI (SK-MEL-2 melanoma): 1520 nM | GI50 (K-562 leukemia): 309 nM | TGI (K-562 leukemia): 2850 nM | GI50 (CCRF-CEM leukemia): 300 nM | TGI (CCRF-CEM leukemia): 4070 nM | GI50 (MOLT-4 leukemia): 147 nM | TGI (MOLT-4 leukemia): 600 nM | GI50 (SK-OV-3 ovarian): 1010 nM | TGI (SK-OV-3 ovarian): 2650 nM | GI50 (SW-620 colon): 203 nM | TGI (SW-620 colon): 785 nM | GI50 (SNB-19 CNS): 398 nM | TGI (SNB-19 CNS): 1250 nM | GI50 (HT29 colon): 163 nM | TGI (HT29 colon): 933 nM | GI50 (MDA-MB-231 breast): 252 nM | TGI (MDA-MB-231 breast): 2270 nM | GI50 (NCI-H226 lung): 814 nM | TGI (NCI-H226 lung): 2000 nM | GI50 (NCI-H460 lung): 316 nM | TGI (NCI-H460 lung): 1040 nM | GI50 (OVCAR-4 ovarian): 75.1 nM | TGI (OVCAR-4 ovarian): 149 nM | GI50 (HCT-116 colon): 133 nM | TGI (HCT-116 colon): 410 nM | GI50 (SK-MEL-5 melanoma): 390 nM | TGI (SK-MEL-5 melanoma): 1030 nM
